Measurements: patent publication US12728114B2, “Methods of treating inflammation” (VERU INC., priority 2021, dated 2026)
“And” between values parts separate entries of the source, which are not always exact repeats. Equal values may be shown once. “Also recorded” adds a separate entry of the source. Read-outs that look alike come from different tables or passages of the source.

Key:
TNF-α [1] = assay: Splenocyte model, flow cytometry of TNF-α expressing cells after LPS; assay type: cell-based, mouse; conditions: 200 nM, 2 hrs preincubation, LPS 5 μg/mL 20 hrs; LPS alone 6.48%, unstimulated 1.03%
Procedure: Briefly, cells were washed two times with FACS (PBS containing 1% serum FBS) staining buffer and fully re-suspended in Cyto-Fast Fix/Perm Buffer for 20 min. Then the cells were washed again for two times with Cyto-Fast Perm wash solution and subsequently stained with recommended dilutions of intracellular antibodies for 30 min at room temperature in the dark. After staining, the cells were washed twice in FACS staining buffer, before they were resuspended in FACS staining buffer and analyzed using a NovoCyte flow cytometer (Agilent, Santa Clara, CA). […] FIG. 2E illustrates the flow cytometry of splenocytes incubated with LPS and Colchicine (200 nM).

IL-1β [2] = assay: ELISA assay to determine IL-1β in PMA-differentiated THP-1 cells stimulated by nigericin; assay type: cell-based, human; conditions: 17ya 40 nM-5 μM, colchicine 1-10 μM, 1 hr, nigericin 20 μM 1 hr
Procedure: Concentrations of IL-1β in culture supernatant. […] IL-1β level was assessed by enzyme-linked immunosorbent assay (ELISA) kit for human IL-1β (R&D systems) (****P<0.0001, Ordinary one-way ANOVA, Prism 9).

TNF-α [3] = assay type: cell-based, mouse
IL-1β [4] = system: IL-1β
IL-1α = conditions: 17ya 40 nM, Dex 10 nM; for IL-1α, replicate 1 / IL-1α, replicate 2 / IL-1α, replicate 3: mouse spleen cells, LPS 5 μg/ml
IL-6 = assay type: cell-based, mouse
CXCL-1/KC = assay type: cell-based, mouse
[5] = adjusted data (control average subtracted), mouse spleen cells, LPS 5 μg/ml, 17ya 40 nM, Dex 10 nM
[6] = raw data, mouse spleen cells, LPS 5 μg/ml, 17ya 40 nM, Dex 10 nM
[7] = adjusted data (control average subtracted)

COc1cc2c(c(OC)c1OC)-c1ccc(OC)c(=O)cc1[C@@H](NC(C)=O)CC2 [colchicine]
spleen cells expressing TNF-α (TNF-α [1]): 3.30%
IL-1β secretion in response to nigericin stimulation (IL-1β [2]): dose-dependently (partially) suppressed the IL-1β levels; also recorded: significantly suppressed IL-1β secretion

C[C@@H]1C[C@H]2[C@@H]3CCC4=CC(=O)C=C[C@]4(C)[C@@]3(F)[C@@H](O)C[C@]2(C)[C@@]1(O)C(=O)CO [Dex, dexamethasone]
TNF-α, Average (TNF-α [3]): 32.414 and 33.60
TNF-α, replicate 1 (TNF-α [3]): 34.2933 and 35.478
TNF-α, replicate 2 (TNF-α [3]): 31.309 and 32.494
TNF-α, replicate 3 (TNF-α [3]): 31.640 and 32.825
average cytokine suppression, TNF-α (TNF-α [3]): 79%
IL-1β, replicate 2 (IL-1β [4]): 4.382
average cytokine suppression, IL-1β (IL-1β [4]; LPS-stimulated mouse spleen cells, 17ya 40 nM, Dex 10 nM): 110%
IL-1β, replicate 1 (IL-1β [4]; [5]): −1.904
IL-1β, replicate 2 (IL-1β [4]; [5]): −2.334
IL-1β, replicate 1 (IL-1β [4]; [6]): 4.812
IL-1β, replicate 3 (IL-1β [4]; [6]): 3.956
average cytokine suppression, IL-1α (IL-1α; LPS-stimulated mouse spleen cells): 106%
IL-1α, replicate 1 (IL-1α; [7]): −10.371
IL-1α, replicate 2 (IL-1α; [7]): −2.519
IL-1α, replicate 3 (IL-1α; [7]): 3.688
IL-1α, replicate 1 (IL-1α; raw data): 22.962
IL-1α, replicate 2 (IL-1α; raw data): 30.814
IL-1α, replicate 3 (IL-1α; raw data): 37.012
IL-6, replicate 1 (IL-6): 99.55 and 17.594
IL-6, replicate 2 (IL-6): 73.64 and −8.316
IL-6, replicate 3 (IL-6): 72.76 and −9.196
average cytokine suppression, IL-6 (IL-6): 100%
CXCL-1/KC, Average (CXCL-1/KC): 136.043 and 253.688
CXCL-1/KC, replicate 1 (CXCL-1/KC): 133.410 and 251.054
CXCL-1/KC, replicate 2 (CXCL-1/KC): 132.285 and 249.929
CXCL-1/KC, replicate 3 (CXCL-1/KC): 142.436 and 260.08
average cytokine suppression, KC (CXCL-1/KC): 59%
